Assay results published in patent publication US11596716B2, “Compounds and matrices for use in bone growth and repair” (Human BioMolecular Research Institute, priority 2013, dated 2023).
Read-outs that look alike come from different tables or passages of the source.

Assays:
C2C12 cells [1] = test: Alkaline Phosphatase (ALP) functional activity assay in C2C12 cells; assay type: cell-based, Mouse; conditions: 500 nM; for ALP activity, combination of compound and matrix compared to compound alone or matrix alone: 6 day incubation, tricalcium phosphate ceramic matrix 5 mg/mL (FIG. 2); for ALP activity fold-changes +/− SD, −matrix / ALP activity fold-changes +/− SD, +matrix: 6 days of culture; for ALP activity fold-changes +/− SD, −matrix: absence of matrix, versus untreated (DMSO) cells; for ALP activity fold-changes +/− SD, +matrix: calcium phosphate ceramic 5 mg/mL
Summary of the method: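 C2C12 cells were seeded in 12-well plates at 7,000 cells/well in 1 mL growth media and exposed to compound in 0.1% DMSO (500 nM). Every 48 hrs half the media was replaced with fresh compound-containing media. After 6 days, cells were lysed and ALP activity measured by pNPP hydrolysis at OD405, normalized to protein and DMSO controls.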

C2C12 cells [2] = test: qPCR detection of osteogenic markers in C2C12 cells; assay type: cell-based, Mouse; conditions: 500 nM, 6 days
[3] = system: Human embryonic stem cells E15 (hESCs); test: qPCR of TLR4/TLR3 ratio and Collagen I in human embryonic stem cells E15; assay type: cell-based; conditions: 500 nM, 8 days
Description: Human embryonic stem cells E15 (hESCs) obtained from ATCC with less than 15 passages were cultured at 37° C. in 5% CO2 in DMEM media supplemented with 15% heat inactivated FBS and 1× GlutaMax. TLRs are biomarkers of stem cell differentiation. TLR4 expression is an osteogenic biomarker and TLR3 expression is an adipogenic biomarker. […]

C2C12 cells [4] = test: qPCR of apoptosis biomarkers (Bax and Fos) in C2C12 cells; assay type: cell-based, Mouse; conditions: 500 nM or 5 μM every 48 hrs, up to 25 days
C2C12 cells [5] = test: Cell proliferation/viability assay (Resazurin / Alamar blue) in C2C12 cells; assay type: cell-based, Mouse; conditions: for cell viability (Alamar blue): 500 nM every 48 hrs for 25 days
Description: Cell proliferation/viability assay: Cells were seeded at a density of 500 cells/well on 96-well plates. After 24 hr, compound (i.e., 5 nM, 50 nM, 500 nM or 5000 nM) was added to the cells in the presence or absence of calcium phosphate matrix (5 mg/mL). […] At the specified time, 1 μg of Resazurin was added to each well of the 96-well plate and the fluorescence signal at 590 nm (excitation at 530 nm) was immediately measured. Readings were designated as time zero values (value0h). Cells were incubated for 1 hr before a second fluorescence measurement at 590 nm was made (value1h). The difference in 1 hr and 0 h (value1h−value0h) readings were used to plot the fold-change in cell proliferation/viability after normalizing to control conditions (i.e., DMSO vehicle treatment). Compounds of Formula II or IV that activate Wnt signaling and compounds of Formula VI that activate TLR signaling pathways were analyzed. This protocol was applied to hMSC and E15 cells as well. Cell proliferation was not robust in keeping with a narrow number of cells highly committed to the bone cell lineage.

hMSCs [6] = test: Alkaline Phosphatase functional activity assay in hMSCs; assay type: cell-based, human; set-up: key to Alkaline Phosphatase activity, −matrix, 8 days / Alkaline Phosphatase activity, +matrix, 8 days / Alkaline Phosphatase activity, −matrix, 25 days / Alkaline Phosphatase activity, +matrix, 25 days: fold-change vs DMSO-treated control (control = 1); conditions: for ALP functional activity, compound and matrix versus compound alone or matrix alone / Alkaline Phosphatase activity, +matrix, 8 days / Alkaline Phosphatase activity, +matrix, 25 days / Alkaline Phosphatase activity, −matrix, 25 days / Alkaline Phosphatase activity, −matrix, 8 days: 500 nM; for ALP functional activity, compound and matrix versus compound alone or matrix alone: 8 and 25 day incubations, matrix 5 mg/mL (FIG. 3); for Alkaline Phosphatase activity, +matrix, 8 days / Alkaline Phosphatase activity, +matrix, 25 days: matrix 5 mg/mL; for Alkaline Phosphatase activity, +matrix, 8 days / Alkaline Phosphatase activity, +matrix, 25 days / Alkaline Phosphatase activity, −matrix, 25 days / Alkaline Phosphatase activity, −matrix, 8 days: mean +/− SD (n = 3); for Alkaline Phosphatase activity, −matrix, 8 days: fold; for EC50: dose-dependent induction in hMSCs, read-out: EC50 of induction of ALP activity
hMSCs [7] = test: qPCR of apoptosis biomarkers (Bax and Fos) in hMSCs; assay type: cell-based, human; conditions: for gene expression of apoptosis biomarkers (Bax and Fos): 500 nM to 5 μM, up to 25 days; for cytotoxicity as determined by quantification of apoptosis: hMSCs
C2C12 cells [8] = test: Alizarin Red S staining (calcium deposition) in C2C12 cells; assay type: cell-based, Mouse; conditions: 500 nM, 25 days of treatment
Description: Alizarin Red S Staining: C2C12 cells were cultured as described for the ALP functional activity assay (above, except compound was added every 48 hr for 25 days), but using 48-well plate format. On day 25, medium was removed and the cells were washed with PBS (calcium and magnesium free). Cells were fixed with 70% ethanol at room temperature for 30 mins, rinsed with water 3×. Following removal of water, 200 μl of Alizarin Red S (2%, pH 4.1) was added to each well and incubated for at least 20 mins. The dye was removed and the cells were washed with excess H2O four times with gentle mixing. The cells were covered with water to prevent evaporation and analyzed by plate reader or microscope. This protocol was applied to hMSC and E15 cells.

hMSCs [9] = test: Alamar blue cell viability assay in hMSCs; assay type: cell-based, human; conditions: 500 nM, 25-day-old hMSCs
Description: Cell proliferation/viability assay: Cells were seeded at a density of 500 cells/well on 96-well plates. After 24 hr, compound (i.e., 5 nM, 50 nM, 500 nM or 5000 nM) was added to the cells in the presence or absence of calcium phosphate matrix (5 mg/mL). One-half of the media was replaced with fresh media containing compound every 48 hours for 8 days. At the specified time, 1 μg of Resazurin was added to each well of the 96-well plate and the fluorescence signal at 590 nm (excitation at 530 nm) was immediately measured. Readings were designated as time zero values (value0h). Cells were incubated for 1 hr before a second fluorescence measurement at 590 nm was made (value1h). The difference in 1 hr and 0 h (value1h−value0h) readings were used to plot the fold-change in cell proliferation/viability after normalizing to control conditions (i.e., DMSO vehicle treatment). Compounds of Formula II or IV that activate Wnt signaling and compounds of Formula VI that activate TLR signaling pathways were analyzed. This protocol was applied to hMSC and E15 cells as well. Cell proliferation was not robust in keeping with a narrow number of cells highly committed to the bone cell lineage.
The assay for cell proliferation followed the same procedure with hMSCs as described for C2C12 cells (Example 7).

hMSCs [10] = test: Alcian Blue staining (chondrogenesis) in hMSCs; assay type: cell-based, human; conditions: 25 days; for effect on chondrogenesis, densitometry of cell culture images: 500 nM, TCP 5 mg/mL; for chondrogenesis (Alcian Blue staining) compared to vehicle-treated hMSCs: presence or absence of matrix
Description: Alcian Blue Staining: Alcian Blue staining was used to stain for the presence of chondrocytes. Alcian Blue solution (1% wt/volume, acetic acid, pH 2.5). hMSCs were cultured as described above for the Alizarin Red S Staining assay (Ex. 7) in 48-well plates. After 25 days of cell culture, cells were fixed with 4% formaldehyde (40 mins) at room temperature, stained for 1 hr followed by washing with dH2O (1 mL) until water was clear (without blue elutes). Cell culture images were taken under a microscope and quantified by densitometry.

| SMILES | ALP activity, combination of compound and matrix compared to compound alone or matrix alone (C2C12 cells [1]) | ALP activity fold-changes +/− SD, −matrix (C2C12 cells [1]) [fold] | ID3 mRNA expression, presence of matrix (C2C12 cells [2]) | increase of TLR4/TLR3 ratio in hESCs [3] [fold] | gene expression of apoptosis biomarkers (Bax and Fos) (C2C12 cells [4]) | cell viability (Alamar blue) (C2C12 cells [5]) | ALP functional activity, compound and matrix versus compound alone or matrix alone (hMSCs [6]) | Alkaline Phosphatase activity, +matrix, 8 days (hMSCs [6]) | Alkaline Phosphatase activity, +matrix, 25 days (hMSCs [6]) | Alkaline Phosphatase activity, −matrix, 25 days (hMSCs [6]) | Alkaline Phosphatase activity, −matrix, 8 days (hMSCs [6]) | gene expression of apoptosis biomarkers (Bax and Fos) (hMSCs [7]) | cytotoxicity as determined by quantification of apoptosis (hMSCs [7]) | calcium deposition, absence of matrix (C2C12 cells [8]) | cell viability (Alamar blue) (hMSCs [9]) | effect on chondrogenesis, densitometry of cell culture images (hMSCs [10]) | chondrogenesis (Alcian Blue staining) compared to vehicle-treated hMSCs (hMSCs [10]) | ALP activity fold-changes +/− SD, +matrix (C2C12 cells [1]) [fold] | EC50 (hMSCs [6]; Homo sapiens) [nM] | further results |
| --- | --- | --- | --- | --- | --- | --- | --- | --- | --- | --- | --- | --- | --- | --- | --- | --- | --- | --- | --- | --- |
| CC(C)[C@H](N)C(=O)Oc1ccc(C=CC(=O)C=C(O)C=Cc2ccc(OC(=O)[C@@H](N)C(C)C)cc2)cc1 [Compound 3, (2S,2′S)—O,O′-(3-hydroxy-5-oxohepta-1,3,6-triene-1,7-diyl)bis(4,1-phenylene) bis(2-amino-3-methylbutanoate)] | synergistic increase in ALP activity | 1.7 ± 0.2 | increased expression | 2 | unable to detect gene expression of typical apoptosis biomarkers | did not show a decrease in cell viability | exceeded the effect of compound alone or matrix alone | 1.8 ± 0.1 | 2.3 ± 0.2 | 1.7 ± 0.1 | 1.5 ± 0.1 | unable to detect gene expression of typical apoptosis biomarkers | no cytotoxicity | marked calcium deposition | no decrease in cell viability | modestly inhibitory on chondrogenesis | no increase in chondrogenesis | – | – | increase in cell proliferation (Alamar Blue Assay) (C2C12 cells [5]; 50 nM, 3 days): 4 fold; EC50 (hMSCs [6]): 140 nM |
| CC(=O)N1c2ccc(C)cc2[C@H](Nc2ccc(C)cc2)C[C@@H]1C (relative stereo) [Compound 1, cis-1-acetyl-2,6-dimethyl-N-(p-methylphenyl)-1,2,3,4-tetrahydroquinolin-4-amine] | synergistic increase in ALP activity | – | 5.0 fold | – | unable to detect gene expression of typical apoptosis biomarkers | did not show a decrease in cell viability | exceeded the effect of compound alone or matrix alone | 1.5 ± 0.1 | 3.6 ± 0.4 | 1.5 ± 0.1 | 1.2 ± 0.1 | unable to detect gene expression of typical apoptosis biomarkers | no cytotoxicity | 1.6 fold | no decrease in cell viability | – | – | 19.4 ± 2.0 | 26 | ID3 mRNA expression, absence of matrix (C2C12 cells [2]): 1.8 fold; calcium deposition, presence of matrix (C2C12 cells [8]): 2.5 fold |
| CC(C)[C@H](N)C(=O)Oc1ccc(/C=C/C(O)=C2\CCC/C(=C\c3ccc(OC(=O)[C@@H](N)C(C)C)cc3)C2=O)cc1 [Compound 4, 4-((1E,3Z)-3-(3-((E)-4-((L-valyl)oxy)benzylidene)-2-oxocyclohexylidene)-3-hydroxyprop-1-en-1-yl)phenyl L-valinate] | synergistic increase in ALP activity | 1.7 ± 0.2 | increased expression | 2 | unable to detect gene expression of typical apoptosis biomarkers | did not show a decrease in cell viability | exceeded the effect of compound alone or matrix alone | 2.7 ± 0.2 | 4.0 ± 0.4 | 1.8 ± 0.2 | 1.5 ± 0.1 | unable to detect gene expression of typical apoptosis biomarkers | no cytotoxicity | marked calcium deposition | no decrease in cell viability | modestly inhibitory on chondrogenesis | no increase in chondrogenesis | 2.6 ± 0.3 | 130 | – |
